Like-named read-outs stand apart in the source and are kept apart here. One block for each molecule: values may come before it.
Legend:
[1] = ref PubChem database, cited from earlier work
[2] = in vitro
Procedure: The PAMPA-BBB assay was conducted according to the methodology followed by Di et al., with some modifications as described below ([15]). First, the BBB solution was prepared by dissolving 8 mg of PBL and 4 mg of cholesterol in 600 μl of n-dodecane. The initial donor solution was prepared by mixing 1 ml of extract (10 mg ml^−1 in EtOH) with 1 ml of buffer (PBS, pH = 7.4, 10 mM). The filter membrane of the donor plate was carefully coated with 5 μl of BBB solution. The acceptor plate was filled with 350 μl of buffer, and the donor plate was carefully assembled over the acceptor plate like a “sandwich.” Finally, the donor plate was filled with 350 μl of donor solution, covered, and incubated for 4 h at 37°C in the dark. After incubation time, 300 μl of the solution was taken from both plates, transferred to separate vials, and dried in the SpeedVac system at 40°C and 13 mbar pressure. Dried acceptor and donor solution were dissolved in 50 μl of pure EtOH before subjecting to UHPLC-Q-TOF-MS analysis. Permeability across in vitro BBB of the bioactive compound was measured according to Equation (1) ([25]), with some modifications in concentration rates.
(1) Pe=-ln[1-CA(t)/Ce]/A^*(1/VD+1/VA)^*t
Cequilibrium was calculated according to the following equation ([2]):
(2) Cequilibrium=[CD(t)*VD+CA(t)*VA]/(VD+VA)

[3] = compounds of RSFE extract, octanol-water partition coefficient
[4] = compounds identified in LPLE extract
[5] = PAMPA, pH 7.4, PAMPA-BBB log Pe (cm s−1)
[6] = PAMPA, pH 7.4, PAMPA-BBB log Pe, compound within LPLE (Nothofagus pumilio, lenga PLE extract), N.D = not detected in acceptor

SMILES: CC(C)c1cc2c(c(O)c1O)[C@@]13CCCC(C)(C)[C@@H]1C[C@@H]2OC3=O [Carnosol]
Log P [1, 3]: 4.4 | Papp at 4 h ([2]; PAMPA, pH 7.4, PAMPA-BBB log Pe (cm s−1), compound within RSFE extract, 4 h, 37°C, PBS pH 7.4): 50.1 ×10⁻⁶ cm/s | Cross BBB potential ([2]; compound within RSFE extract): +++ (log Pe > −4.5)

SMILES: O.Oc1cc(O)c2c(c1)O[C@H](c1ccc(O)c(O)c1)[C@@H](O)C2 [Catechin]
Log P [1, 4]: 0.4 | Log P ([1]; compounds of ASFE extract): 0.4 | Cross BBB potential ([2]; PAMPA): -

SMILES: COc1cc(/C=C/C=O)ccc1O [Coniferaldehyde]
Log P [1, 4]: 1.5 | Log P ([1]; compounds of ASFE extract): 1.5 | PAMPA-BBB log Pe (cm s−1) ([2]; PAMPA, pH 7.4): −4.24 cm s−1 | PAMPA-BBB log Pe ([2]; compound within LPLE (Nothofagus pumilio, lenga PLE extract), N.D = not detected in acceptor): −4.65 cm s−1

Cross BBB potential ([2]; PAMPA): ++ | Papp at 4 h [2, 5]: 6.03 ×10⁻⁶ cm/s | Papp at 4 h [2, 6]: 8.51 ×10⁻⁶ cm/s
SMILES: C[C@H]1[C@H](C)CC[C@]2(C(=O)O)CC[C@]3(C)C(=CC[C@@H]4[C@@]5(C)C[C@@H](O)[C@H](O)C(C)(C)[C@@H]5CC[C@]43C)[C@H]12 [Corosolic acid]
Log P [1, 4]: 6.4

Cross BBB potential ([2]; compound within ASFE extract): - | Cross BBB potential ([2]; compound within LPLE (Nothofagus pumilio, lenga PLE extract), classes based on Könczöl et al.): -
SMILES: O=C(/C=C/c1ccc(O)cc1)O[C@@H](C(=O)O)[C@@H](O)C(=O)O [Coutaric acid]
Log P [1, 4]: 0.4 | Log P ([1]; compounds of ASFE extract): 0.4

SMILES: COc1ccc(-c2cc(=O)c3c(O)cc(O)cc3o2)cc1O [Diosmetin]
Cross BBB potential ([2]; PAMPA): ++ (key: -: not detected in acceptor; +: log Pe > −6.5; ++: log Pe > −5.5; +++: log Pe > −4.5) | Papp [2, 5]: 31.6 ×10⁻⁶ cm/s

SMILES: O=c1oc2c(O)c(O)cc3c(=O)oc4c(O)c(O)cc1c4c23 [Ellagic acid]
Cross BBB potential ([2]; PAMPA): -

SMILES: O=C1C[C@@H](c2ccc(O)c(O)c2)Oc2cc(O)cc(O)c21 [Eriodictyol]
Log P [1, 3]: 2.0

SMILES: CCOC(=O)/C=C/c1ccc(O)c(O)c1 [Ethyl caffeate]
Papp at 4 h ([2]; PAMPA, pH 7.4, PAMPA-BBB log Pe (cm s−1), compound within T33 extract, 4 h, 37°C, PBS pH 7.4): 18.6 ×10⁻⁶ cm/s | Cross BBB potential ([2]; compound within T33 extract): ++ (log Pe > −5.5)

SMILES: COc1cc(/C=C/C(=O)O)ccc1O [Ferulic acid]
Cross BBB potential ([2]; PAMPA): ++ (key: -: not detected in acceptor; +: log Pe > −6.5; ++: log Pe > −5.5; +++: log Pe > −4.5) | PAMPA-BBB log Pe (cm s−1) ([2]; PAMPA, pH 7.4): −4.68 cm s−1 | Cross BBB potential ([2]; compound within ASFE extract): -

Papp at 4 h [2, 6]: 69.2 ×10⁻⁶ cm/s
SMILES: O=C(O)c1cc(O)c(O)c(O)c1 [Gallic acid]

SMILES: COc1cc(O)c2c(=O)cc(-c3ccc(O)cc3)oc2c1 [Genkwanin]
Papp at 4 h [2, 5]: 9.55 ×10⁻⁶ cm/s

SMILES: O=c1c(O[C@@H]2O[C@H](CO)[C@@H](O)[C@H](O)[C@H]2O)c(-c2ccc(O)c(O)c2)oc2cc(O)cc(O)c12 [Isoquercitrin]
Cross BBB potential ([2]; PAMPA): -

SMILES: O=c1cc(-c2ccc(O)c(O)c2)oc2cc(O)cc(O)c12 [Luteolin]
Papp at 4 h [2, 5]: 38 ×10⁻⁶ cm/s

SMILES: O=c1c(O)c(-c2cc(O)c(O)c(O)c2)oc2cc(O)cc(O)c12 [Myricetin]
Cross BBB potential ([2]; PAMPA): -

SMILES: Oc1cc(O)c2c(c1)O[C@H](c1ccc(O)c(O)c1)[C@H](O)[C@H]2c1c(O)cc(O)c2c1O[C@H](c1ccc(O)c(O)c1)[C@H](O)C2 [Procyanidin B2]
Cross BBB potential ([2]; PAMPA): -

SMILES: O=C(/C=C/c1ccc(O)c(O)c1)O[C@H](Cc1ccc(O)c(O)c1)C(=O)O [Rosmarinic acid]
Log P [1, 3]: 2.4 | Log P ([1]; compounds of T33 extract): 2.4

SMILES: C[C@@H]1O[C@@H](OC[C@H]2O[C@@H](Oc3c(-c4ccc(O)c(O)c4)oc4cc(O)cc(O)c4c3=O)[C@H](O)[C@@H](O)[C@@H]2O)[C@H](O)[C@H](O)[C@H]1O [Rutin]
Cross BBB potential ([2]; PAMPA): -

Papp at 4 h [2, 5]: 75.9 ×10⁻⁶ cm/s | Papp at 4 h [2, 6]: 28.2 ×10⁻⁶ cm/s
SMILES: COc1cc2ccc(=O)oc2cc1O [Scopoletin]

SMILES: O=c1ccc2ccc(O)cc2o1 [Umbelliferone]
Papp at 4 h ([2]; PAMPA, pH 7.4): 38 ×10⁻⁶ cm/s | Cross BBB potential ([2]; compound within RSFE extract): +++ (log Pe > −4.5)

SMILES: COc1cc(C(=O)O)ccc1O[C@@H]1O[C@H](CO)[C@@H](O)[C@H](O)[C@H]1O [Vanillic acid-O-hexoside]
Cross BBB potential ([2]; compound within RSFE extract): +++ (log Pe > −4.5) | PAMPA-BBB log Pe (cm s−1) ([2]; compound within RSFE extract, 4 h, 37°C, PBS pH 7.4): −4.19 cm s−1

Papp at 4 h [2, 5]: 70.8 ×10⁻⁶ cm/s | Papp at 4 h [2, 6]: 33.1 ×10⁻⁶ cm/s
SMILES: COc1cc(C=O)ccc1O [Vanillin]
